Data reported in patent US9650390B2, “Water-soluble taxane derivatives and uses thereof” (priority 2014, dated 2017).
Where a name gives a salt, the structure may show the parent alone.

Tests used:
[1] = In vitro dissociation in blood plasma of rat; type: in vitro ADME, SD rats; conditions: fresh SD rat plasma, 37° C.; for Sampling time/Dissociation percent (%) 2 min: 2 min incubation; for Sampling time/Dissociation percent (%) 5 min: 5 min incubation; for Sampling time/Dissociation percent (%) 10 min: 10 min incubation
Procedure: The obtained water soluble taxane derivatives of the following formulae were formulated as 0.2 mg/ml aqueous solutions. […] After 2 min, 5 min and 10 min of incubation, 0.2 ml of solutions were respectively taken from each of the samples, and added to acetonitrile (0.4 ml) cooled to −20° C. for precipitation of protein.

[2] = In vitro dissociation in blood plasma of rabbit; type: in vitro ADME, New Zealand white rabbits; conditions: fresh New Zealand white rabbit plasma, 37° C.
Procedure: The obtained water soluble taxane derivatives of the following formulae were formulated as 0.2 mg/ml aqueous solutions. […]

[3] = system: human prostate cancer PC-3; test: Inhibitory activity of docetaxel derivatives on subcutaneously xenografted tumor PC-3 in nude mice; type: in vivo; conditions: 33.6 mg/kg, D0 IV; for Weight change (%) D6: nude mice; for T/C (%) D20 / Tumor volume (mm^3) (D20) / Tumor inhibitory percent (%) D20 / Tumor volume (mm^3) (D0): PC-3 xenograft in nude mice; for Tumor inhibitory percent (%) D20: P = 0.000 vs control; for Tumor volume (mm^3) (D0): baseline at grouping (D0)
Text: Purpose: to evaluate and compare the inhibitory activity of the water soluble docetaxel derivatives and docetaxel on subcutaneously xenografted tumor of human prostate cancer PC-3 in nude mice
Human prostate cancer PC-3 cells were subcutaneously inoculated into nude mice. After the tumor volume reached 100-150 mm^3, the animals were randomly divided into several groups, and administered with the water soluble docetaxel derivatives of the following formula and docetaxel, respectively once on the same day (D0). The tumor volume was measured 2-3 times per week, the animals were weighed and the data were recorded until day 20 (D20) after grouping.
The tumor volume (V) was calculated according to the equation: V=½×a×b^2, wherein a and b represent the length and the width, respectively.
T/C (%)=(T−T0)/(C−C0)×100, wherein T and C represent the tumor volume at the end of the experiment; and T0 and C0 represent the tumor volume at the beginning of the experiment.

2′-O-[4-(aziridin-1-yl)amino-2,2-difluoroheptanoyl]docetaxel methanesulfonate [Compound 14]
Sampling time/Dissociation percent (%) 2 min [1]: 42.1%
Sampling time/Dissociation percent (%) 5 min [1]: 55.7%
Sampling time/Dissociation percent (%) 10 min [1]: 72.5%

CCCCC(CC(F)(C(=O)OC(C(=O)OC1CC2(O)C(OC(=O)c3ccccc3)C3C4(OC(C)=O)COC4CC(O)C3(C)C(=O)C(OC(C)=O)C(=C1C)C2(C)C)C(NC(=O)c1ccccc1)c1ccccc1)C(F)(F)F)N(C)C1CCCC1.Cl (mixture of isomers) [Compound C15, 2′-O-[4-N-methyl-N-cyclopentylamino-2-trifluoromethyl-2-fluorooctanoyl]paclitaxel hydrochloride]
Sampling time/Dissociation percent (%) 2 min [1]: 34.2%
Sampling time/Dissociation percent (%) 5 min [1]: 45.3%
Sampling time/Dissociation percent (%) 10 min [1]: 58.2%

CO[C@H]1C(=O)[C@]2(C)[C@@H](OC)C[C@H]3OC[C@@]3(OC(C)=O)[C@H]2[C@H](OC(=O)c2ccccc2)[C@]2(O)C[C@H](OC(=O)[C@H](OC(=O)[C@H](F)CCN(C)C)[C@@H](NC(=O)OC(C)(C)C)c3ccccc3)C(C)=C1C2(C)C [Compound 07, 2′-O-[4-N,N-dimethylamino-2(R)-fluorobutyryl]cabazitaxel hydrochloride]
Sampling time/Dissociation percent (%) 2 min [1]: 49.5%
Sampling time/Dissociation percent (%) 5 min [1]: 89.6%
Sampling time/Dissociation percent (%) 10 min [1]: 100%
Sampling time/Dissociation percent (%) 2 min [2]: 79.2%
Sampling time/Dissociation percent (%) 5 min [2]: 95.5%
Sampling time/Dissociation percent (%) 10 min [2]: 100%

CO[C@H]1C(=O)[C@]2(C)[C@@H](OC)C[C@H]3OC[C@@]3(OC(C)=O)[C@H]2[C@H](OC(=O)c2ccccc2)[C@]2(O)C[C@H](OC(=O)[C@H](OC(=O)[C@@H](F)CCN(C)C)[C@@H](NC(=O)OC(C)(C)C)c3ccccc3)C(C)=C1C2(C)C.Cl [Compound 08, 2′-O-[4-N,N-dimethylamino-2(S)-fluorobutyryl]cabazitaxel hydrochloride]
Sampling time/Dissociation percent (%) 2 min [1]: 47.6%
Sampling time/Dissociation percent (%) 5 min [1]: 87.6%
Sampling time/Dissociation percent (%) 10 min [1]: 100%
Sampling time/Dissociation percent (%) 2 min [2]: 89.9%
Sampling time/Dissociation percent (%) 5 min [2]: 93.2%
Sampling time/Dissociation percent (%) 10 min [2]: 100%

COC1C(=O)C2(C)C(OC)CC3OCC3(OC(C)=O)C2C(OC(=O)c2ccccc2)C2(O)CC(OC(=O)C(OC(=O)C(F)CCN(C)C)C(NC(=O)OC(C)(C)C)c3ccccc3)C(C)=C1C2(C)C.Cl [Compound 09, 2′-O-[4-N,N-dimethylamino-2(R,S)-fluorobutyryl]cabazitaxel hydrochloride]
Sampling time/Dissociation percent (%) 2 min [1]: 47.8%
Sampling time/Dissociation percent (%) 5 min [1]: 89.1%
Sampling time/Dissociation percent (%) 10 min [1]: 100%
Sampling time/Dissociation percent (%) 2 min [2]: 83.2%
Sampling time/Dissociation percent (%) 5 min [2]: 97.1%
Sampling time/Dissociation percent (%) 10 min [2]: 100%

COC1C(=O)C2(C)C(OC)CC3OCC3(OC(C)=O)C2C(OC(=O)c2ccccc2)C2(O)CC(OC(=O)C(OC(=O)C(CCN)C(F)F)C(NC(=O)OC(C)(C)C)c3ccccc3)C(C)=C1C2(C)C.O=S(=O)([O-])O.[Na+] [Compound 10, 2′-O-[4-amino-2(R)-difluoromethylbutyryl]cabazitaxel sodium bisulfate salt]
Sampling time/Dissociation percent (%) 2 min [1]: 45.2%
Sampling time/Dissociation percent (%) 5 min [1]: 86.5%
Sampling time/Dissociation percent (%) 10 min [1]: 96.8%
Sampling time/Dissociation percent (%) 2 min [2]: 38.1%
Sampling time/Dissociation percent (%) 5 min [2]: 63.2%
Sampling time/Dissociation percent (%) 10 min [2]: 80.3%

CCN(CC)CC[C@](C)(C(=O)O[C@@H](C(=O)O[C@H]1C[C@@]2(O)[C@@H](OC(=O)c3ccccc3)[C@@H]3[C@]4(OC(C)=O)CO[C@@H]4C[C@H](OC)[C@@]3(C)C(=O)[C@H](OC)C(=C1C)C2(C)C)[C@@H](NC(=O)OC(C)(C)C)c1ccccc1)C(F)(F)F.CS(=O)(=O)O [Compound 11, 2′-O-[4-N,N-diethylamino-2-methyl-2(R)-2-trifluoromethylbutyryl]cabazitaxel methanesulfonate]
Sampling time/Dissociation percent (%) 2 min [1]: 52.3%
Sampling time/Dissociation percent (%) 5 min [1]: 89.6%
Sampling time/Dissociation percent (%) 10 min [1]: 97.2%
Sampling time/Dissociation percent (%) 2 min [2]: 56.2%
Sampling time/Dissociation percent (%) 5 min [2]: 80.5%
Sampling time/Dissociation percent (%) 10 min [2]: 92.1%

CCN(C)C(C)C[C@H](CC(F)F)C(=O)O[C@@H](C(=O)O[C@H]1C[C@@]2(O)[C@@H](OC(=O)c3ccccc3)[C@@H]3[C@]4(OC(C)=O)CO[C@@H]4C[C@H](O)[C@@]3(C)C(=O)[C@H](O)C(=C1C)C2(C)C)[C@@H](NC(=O)OC(C)(C)C)c1ccccc1.Cl (stereo partly drawn) [Compound 12, 2′-O-[4-N-methyl-N-ethylamino-2(R)-2-difluoroethylvaleryl]docetaxel hydrochloride]
Sampling time/Dissociation percent (%) 2 min [1]: 43.6%
Sampling time/Dissociation percent (%) 5 min [1]: 75.6%
Sampling time/Dissociation percent (%) 10 min [1]: 89.6%
Sampling time/Dissociation percent (%) 2 min [2]: 35.2%
Sampling time/Dissociation percent (%) 5 min [2]: 61.3%
Sampling time/Dissociation percent (%) 10 min [2]: 73.2%

CO[C@H]1C(=O)[C@]2(C)[C@@H](OC)C[C@H]3OC[C@@]3(OC(C)=O)[C@H]2[C@H](OC(=O)c2ccccc2)[C@]2(O)C[C@H](OC(=O)[C@H](OC(=O)[C@@H](CCN)C(F)F)[C@@H](NC(=O)OC(C)(C)C)c3ccccc3)C(C)=C1C2(C)C.O=S(=O)(O)O [Compound C10, 2′-O-[4-amino-2(R)-difluoromethylbutyryl]cabazitaxel sulfate]
Sampling time/Dissociation percent (%) 2 min [1]: 45.6%
Sampling time/Dissociation percent (%) 5 min [1]: 87.1%
Sampling time/Dissociation percent (%) 10 min [1]: 97.3%
Sampling time/Dissociation percent (%) 2 min [2]: 48.9%
Sampling time/Dissociation percent (%) 5 min [2]: 68.4%
Sampling time/Dissociation percent (%) 10 min [2]: 91.3%

CCN(CC)CC[C@](C)(C(=O)O[C@@H](C(=O)O[C@H]1C[C@@]2(O)[C@@H](OC(=O)c3ccccc3)[C@@H]3[C@]4(OC(C)=O)CO[C@@H]4C[C@H](OC)[C@@]3(C)C(=O)[C@H](OC)C(=C1C)C2(C)C)[C@@H](NC(=O)OC(C)(C)C)c1ccccc1)C(F)(F)F.Cl [Compound C11, 2′-O-[4-N,N-diethylamino-2-methyl-2(R)-2-trifluoromethylbutyryl]cabazitaxel hydrochloride]
Sampling time/Dissociation percent (%) 2 min [1]: 51.2%
Sampling time/Dissociation percent (%) 5 min [1]: 88.4%
Sampling time/Dissociation percent (%) 10 min [1]: 95.9%
Sampling time/Dissociation percent (%) 2 min [2]: 61.2%
Sampling time/Dissociation percent (%) 5 min [2]: 84.5%
Sampling time/Dissociation percent (%) 10 min [2]: 96.3%

CCCC(CC(F)(F)C(=O)O[C@@H](C(=O)O[C@H]1C[C@@]2(O)[C@@H](OC(=O)c3ccccc3)[C@@H]3[C@]4(OC(C)=O)CO[C@@H]4C[C@H](O)[C@@]3(C)C(=O)[C@H](O)C(=C1C)C2(C)C)[C@@H](NC(=O)OC(C)(C)C)c1ccccc1)N1CC1.Cl (some centres unmarked) [Compound C14, 2′-O-[4-(aziridin-1-yl)amino-2,2-difluoroheptanoyl]docetaxel hydrochloride]
Sampling time/Dissociation percent (%) 2 min [1]: 41.9%
Sampling time/Dissociation percent (%) 5 min [1]: 54.4%
Sampling time/Dissociation percent (%) 10 min [1]: 71.3%

CCN(C)CCC(F)C(=O)OC(C(=O)OC1CC2(O)C(OC(=O)c3ccccc3)C3C4(OC(C)=O)COC4CC(O)C3(C)C(=O)C(O)C(=C1C)C2(C)C)C(NC(=O)OC(C)(C)C)c1ccccc1.CS(=O)(=O)O [Compound C25, 2′-O-[4-N-methyl-N-ethylamino-2(R)-fluorobutyryl]docetaxel methanesulfonate]
Weight change (%) D6 [3]: −13.6%
T/C (%) D20 [3]: −62%
Tumor volume (mm^3) (D20) [3]: 30.4 ± 11.1 mm^3
Tumor inhibitory percent (%) D20 [3]: 143%
Tumor volume (mm^3) (D0) [3]: 113.8 ± 3.0 mm^3

CCN(CC)CCC(F)C(=O)OC(C(=O)OC1CC2(O)C(OC(=O)c3ccccc3)C3C4(OC(C)=O)COC4CC(O)C3(C)C(=O)C(O)C(=C1C)C2(C)C)C(NC(=O)OC(C)(C)C)c1ccccc1.O=C(O)C=CC(=O)O [Compound C26, 2′-O-[4-N,N-diethylamino-2(S)-fluorobutyryl]docetaxel maleate]
Weight change (%) D6 [3]: −14.1%
T/C (%) D20 [3]: −52%
Tumor volume (mm^3) (D20) [3]: 32.4 ± 13.5 mm^3
Tumor inhibitory percent (%) D20 [3]: 120%
Tumor volume (mm^3) (D0) [3]: 114.4 ± 2.8 mm^3

CC(=O)O[C@@]12CO[C@@H]1C[C@H](O)[C@@]1(C)C(=O)[C@H](O)C3=C(C)[C@@H](OC(=O)[C@H](OC(=O)[C@H](F)CCN(C)C(C)C)[C@@H](NC(=O)OC(C)(C)C)c4ccccc4)C[C@@](O)([C@@H](OC(=O)c4ccccc4)[C@H]21)C3(C)C.Cl [Compound C27, 2′-O-[4-N-methyl-N-isopropylamino-2(R)-fluorobutyryl]docetaxel hydrochloride]
Weight change (%) D6 [3]: −14.4%
T/C (%) D20 [3]: −44%
Tumor volume (mm^3) (D20) [3]: 35.3 ± 14.7 mm^3
Tumor inhibitory percent (%) D20 [3]: 101%
Tumor volume (mm^3) (D0) [3]: 116.3 ± 3.7 mm^3

CC(=O)O[C@@]12CO[C@@H]1C[C@H](O)[C@@]1(C)C(=O)[C@H](O)C3=C(C)[C@@H](OC(=O)[C@H](OC(=O)[C@@H](CCN(C)C)C(F)(F)F)[C@@H](NC(=O)OC(C)(C)C)c4ccccc4)C[C@@](O)([C@@H](OC(=O)c4ccccc4)[C@H]21)C3(C)C.CS(=O)(=O)O [Compound C28, 2′-O-[4-N,N-dimethylamino-2(R)-2-trifluoromethylbutyryl]docetaxel methanesulfonate]
Weight change (%) D6 [3]: −13.9%
T/C (%) D20 [3]: −46%
Tumor volume (mm^3) (D20) [3]: 34.5 ± 12.6 mm^3
Tumor inhibitory percent (%) D20 [3]: 105%
Tumor volume (mm^3) (D0) [3]: 113.5 ± 2.8 mm^3
